Assay results published in PubChem BioAssay (NCI).
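Results reflect a 48-hour exposure of cells in 96-well plates to compound at five concentrations. TGI: total growth inhibition.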

Columns and labels:
Test in all cases: NCI tumour cell line growth inhibition, 48 h
UACC-62 melanoma = system: UACC-62 melanoma
A498 renal = system: A498 renal
M14 melanoma = system: M14 melanoma
DMS 273 small cell lung = system: DMS 273 small cell lung
DLD-1 colon = system: DLD-1 colon
LXFL 529 NSCLC = system: LXFL 529 NSCLC
HL-60(TB) leukemia = system: HL-60(TB) leukemia
OVCAR-4 ovarian = system: OVCAR-4 ovarian
UACC-257 melanoma = system: UACC-257 melanoma
ACHN renal = system: ACHN renal
SF-268 CNS = system: SF-268 CNS
NCI-H522 lung = system: NCI-H522 lung
K-562 leukemia = system: K-562 leukemia
MALME-3M melanoma = system: MALME-3M melanoma
HCT-116 colon = system: HCT-116 colon
M19-MEL melanoma = system: M19-MEL melanoma
DMS 114 small cell lung = system: DMS 114 small cell lung
LOX IMVI melanoma = system: LOX IMVI melanoma
COLO 205 colon = system: COLO 205 colon
A549 NSCLC = system: A549 NSCLC
HCC-2998 colon = system: HCC-2998 colon
CCRF-CEM leukemia = system: CCRF-CEM leukemia
SK-MEL-2 melanoma = system: SK-MEL-2 melanoma
NCI-H460 lung = system: NCI-H460 lung
SNB-19 CNS = system: SNB-19 CNS
TK-10 renal = system: TK-10 renal
NCI-H226 lung = system: NCI-H226 lung
SN12C renal = system: SN12C renal
EKVX NSCLC = system: EKVX NSCLC
KM12 colon = system: KM12 colon
RXF-631 renal = system: RXF-631 renal
HCT-15 colon = system: HCT-15 colon
IGROV1 ovarian = system: IGROV1 ovarian
SK-MEL-5 melanoma = system: SK-MEL-5 melanoma
NCI-H23 lung = system: NCI-H23 lung
OVCAR-3 ovarian = system: OVCAR-3 ovarian
XF 498 CNS = system: XF 498 CNS
OVCAR-5 ovarian = system: OVCAR-5 ovarian
OVCAR-8 ovarian = system: OVCAR-8 ovarian
SNB-78 CNS = system: SNB-78 CNS
HT29 colon = system: HT29 colon
SK-OV-3 ovarian = system: SK-OV-3 ovarian
SK-MEL-28 melanoma = system: SK-MEL-28 melanoma
U251 CNS = system: U251 CNS
KM20L2 colon = system: KM20L2 colon
HOP-62 NSCLC = system: HOP-62 NSCLC
SF-295 CNS = system: SF-295 CNS
786-0 renal = system: 786-0 renal
UO-31 renal = system: UO-31 renal
SW-620 colon = system: SW-620 colon
HOP-18 NSCLC = system: HOP-18 NSCLC
SNB-75 CNS = system: SNB-75 CNS
SF-539 CNS = system: SF-539 CNS
RXF 393 renal = system: RXF 393 renal
MOLT-4 leukemia = system: MOLT-4 leukemia
RPMI-8226 leukemia = system: RPMI-8226 leukemia
CAKI-1 renal = system: CAKI-1 renal
SR leukemia = system: SR leukemia
HOP-92 NSCLC = system: HOP-92 NSCLC

## COC(=O)CCC(NC(=S)N/N=C(\C)c1ccco1)C(=O)OC (centres undefined)
UACC-62 melanoma
  TGI: > 100 µM
A498 renal
  TGI: > 100 µM
M14 melanoma
  TGI: > 100 µM
DMS 273 small cell lung
  TGI: > 100 µM
DLD-1 colon
  TGI: > 100 µM
LXFL 529 NSCLC
  TGI: > 100 µM
HL-60(TB) leukemia
  TGI: > 100 µM
OVCAR-4 ovarian
  TGI: > 100 µM
UACC-257 melanoma
  TGI: > 100 µM
ACHN renal
  TGI: > 100 µM
SF-268 CNS
  TGI: > 100 µM
NCI-H522 lung
  TGI: > 100 µM
K-562 leukemia
  TGI: > 100 µM
MALME-3M melanoma
  TGI: > 100 µM
HCT-116 colon
  TGI: > 100 µM
M19-MEL melanoma
  TGI: > 100 µM
DMS 114 small cell lung
  TGI: > 100 µM
LOX IMVI melanoma
  TGI: > 100 µM
COLO 205 colon
  TGI: > 100 µM
A549 NSCLC
  TGI: > 100 µM
HCC-2998 colon
  TGI: > 100 µM
CCRF-CEM leukemia
  TGI: > 100 µM
SK-MEL-2 melanoma
  TGI: > 100 µM
NCI-H460 lung
  TGI: > 100 µM
SNB-19 CNS
  TGI: > 100 µM
TK-10 renal
  TGI: > 100 µM
NCI-H226 lung
  TGI: > 100 µM
SN12C renal
  TGI: > 100 µM
EKVX NSCLC
  TGI: > 100 µM
KM12 colon
  TGI: > 100 µM
RXF-631 renal
  TGI: > 100 µM
HCT-15 colon
  TGI: > 100 µM
IGROV1 ovarian
  TGI: > 100 µM
SK-MEL-5 melanoma
  TGI: > 100 µM
NCI-H23 lung
  TGI: > 100 µM
OVCAR-3 ovarian
  TGI: > 100 µM
XF 498 CNS
  TGI: > 100 µM
OVCAR-5 ovarian
  TGI: > 100 µM
OVCAR-8 ovarian
  TGI: > 100 µM
SNB-78 CNS
  TGI: > 100 µM
HT29 colon
  TGI: > 100 µM
SK-OV-3 ovarian
  TGI: > 100 µM
SK-MEL-28 melanoma
  TGI: > 100 µM
U251 CNS
  TGI: > 100 µM
KM20L2 colon
  TGI: > 100 µM
HOP-62 NSCLC
  TGI: > 100 µM
SF-295 CNS
  TGI: > 100 µM
786-0 renal
  TGI: > 100 µM
UO-31 renal
  TGI: > 100 µM
SW-620 colon
  TGI: > 100 µM
HOP-18 NSCLC
  TGI: > 100 µM
SNB-75 CNS
  TGI: > 100 µM
SF-539 CNS
  TGI: > 100 µM
RXF 393 renal
  TGI: > 100 µM

## CCc1ccccc1N1C(=O)C(=O)C(c2nc3ccccc3s2)C(=O)C1=O
UACC-62 melanoma
  TGI: > 100 µM
M14 melanoma
  TGI: > 100 µM
DLD-1 colon
  TGI: > 100 µM
LXFL 529 NSCLC
  TGI: > 100 µM
MOLT-4 leukemia
  TGI: > 100 µM
HL-60(TB) leukemia
  TGI: > 100 µM
OVCAR-4 ovarian
  TGI: > 100 µM
UACC-257 melanoma
  TGI: > 100 µM
ACHN renal
  TGI: > 100 µM
SF-268 CNS
  TGI: > 100 µM
NCI-H522 lung
  TGI: > 100 µM
K-562 leukemia
  TGI: > 100 µM
MALME-3M melanoma
  TGI: > 100 µM
HCT-116 colon
  TGI: > 100 µM
M19-MEL melanoma
  TGI: > 100 µM
DMS 114 small cell lung
  TGI: > 100 µM
LOX IMVI melanoma
  TGI: > 100 µM
A549 NSCLC
  TGI: > 100 µM
HCC-2998 colon
  TGI: > 100 µM
CCRF-CEM leukemia
  TGI: > 100 µM
RPMI-8226 leukemia
  TGI: > 100 µM
SK-MEL-2 melanoma
  TGI: > 100 µM
NCI-H460 lung
  TGI: > 100 µM
SNB-19 CNS
  TGI: > 100 µM
TK-10 renal
  TGI: > 100 µM
NCI-H226 lung
  TGI: > 100 µM
SN12C renal
  TGI: > 100 µM
EKVX NSCLC
  TGI: > 100 µM
KM12 colon
  TGI: > 100 µM
RXF-631 renal
  TGI: > 100 µM
HCT-15 colon
  TGI: > 100 µM
IGROV1 ovarian
  TGI: > 100 µM
SK-MEL-5 melanoma
  TGI: > 100 µM
NCI-H23 lung
  TGI: > 100 µM
OVCAR-3 ovarian
  TGI: > 100 µM
XF 498 CNS
  TGI: > 100 µM
CAKI-1 renal
  TGI: > 100 µM
OVCAR-5 ovarian
  TGI: > 100 µM
OVCAR-8 ovarian
  TGI: > 100 µM
SNB-78 CNS
  TGI: > 100 µM
HT29 colon
  TGI: > 100 µM
SK-OV-3 ovarian
  TGI: > 100 µM
SK-MEL-28 melanoma
  TGI: > 100 µM
U251 CNS
  TGI: > 100 µM
KM20L2 colon
  TGI: > 100 µM
HOP-62 NSCLC
  TGI: > 100 µM
SR leukemia
  TGI: > 100 µM
SF-295 CNS
  TGI: > 100 µM
786-0 renal
  TGI: > 100 µM
UO-31 renal
  TGI: > 100 µM
SW-620 colon
  TGI: > 100 µM
HOP-18 NSCLC
  TGI: > 100 µM
HOP-92 NSCLC
  TGI: > 100 µM
SF-539 CNS
  TGI: > 100 µM
RXF 393 renal
  TGI: > 100 µM

## Nc1ccc(N)c2c1C(=O)c1ccccc1C2=O
UACC-62 melanoma
  TGI: > 100 µM
A498 renal
  TGI: > 100 µM
M14 melanoma
  TGI: > 100 µM
DMS 273 small cell lung
  TGI: > 100 µM
DLD-1 colon
  TGI: > 100 µM
LXFL 529 NSCLC
  TGI: > 100 µM
MOLT-4 leukemia
  TGI: > 100 µM
OVCAR-4 ovarian
  TGI: > 100 µM
UACC-257 melanoma
  TGI: > 100 µM
ACHN renal
  TGI: > 100 µM
SF-268 CNS
  TGI: > 100 µM
NCI-H522 lung
  TGI: > 100 µM
K-562 leukemia
  TGI: > 100 µM
MALME-3M melanoma
  TGI: > 100 µM
HCT-116 colon
  TGI: > 100 µM
M19-MEL melanoma
  TGI: > 100 µM
DMS 114 small cell lung
  TGI: > 100 µM
LOX IMVI melanoma
  TGI: > 100 µM
COLO 205 colon
  TGI: > 100 µM
A549 NSCLC
  TGI: > 100 µM
HCC-2998 colon
  TGI: 72.9 µM
CCRF-CEM leukemia
  TGI: > 100 µM
RPMI-8226 leukemia
  TGI: > 100 µM
SK-MEL-2 melanoma
  TGI: > 100 µM
NCI-H460 lung
  TGI: > 100 µM
SNB-19 CNS
  TGI: > 100 µM
TK-10 renal
  TGI: 94 µM
NCI-H226 lung
  TGI: > 100 µM
SN12C renal
  TGI: > 100 µM
EKVX NSCLC
  TGI: > 100 µM
KM12 colon
  TGI: > 100 µM
RXF-631 renal
  TGI: > 100 µM
HCT-15 colon
  TGI: > 100 µM
IGROV1 ovarian
  TGI: > 100 µM
SK-MEL-5 melanoma
  TGI: > 100 µM
NCI-H23 lung
  TGI: > 100 µM
OVCAR-3 ovarian
  TGI: > 100 µM
XF 498 CNS
  TGI: > 100 µM
CAKI-1 renal
  TGI: > 100 µM
OVCAR-5 ovarian
  TGI: > 100 µM
OVCAR-8 ovarian
  TGI: > 100 µM
SNB-78 CNS
  TGI: > 100 µM
HT29 colon
  TGI: > 100 µM
SK-OV-3 ovarian
  TGI: > 100 µM
SK-MEL-28 melanoma
  TGI: > 100 µM
U251 CNS
  TGI: > 100 µM
KM20L2 colon
  TGI: > 100 µM
HOP-62 NSCLC
  TGI: > 100 µM
786-0 renal
  TGI: > 100 µM
UO-31 renal
  TGI: > 100 µM
SW-620 colon
  TGI: > 100 µM
HOP-18 NSCLC
  TGI: > 100 µM
SNB-75 CNS
  TGI: > 100 µM
HOP-92 NSCLC
  TGI: > 100 µM
SF-539 CNS
  TGI: > 100 µM
